Reference: patent US4914197A, “Novel phosphoric diesters” (Senju Pharmaceutical Co., Ltd., priority 1986, dated 1990)
Where “and” joins values, the source holds several entries; their conditions need not be identical. Equal values may be shown once.

Tests used:
rabbits eye = experiment: Topical antiinflammatory effect, anterior chamber paracentesis inflammation model of the rabbits eye; assay type: in vivo, female white rabbits; conditions: 0.1% ophthalmic solution; for % Inhibition: inhibition of increase in protein of secondary aqueous humor vs control; for Increase in protein: secondary minus primary aqueous humor (1.5 hours apart), 10 μl at 2, 1 and 0.5 hour before paracentesis, control 25.5
Method: The antiinflammatory effect of the compound according to the present invention was investigated in the anterior chamber paracentesis inflammation model of the rabbits eye.
Method: Using female white rabbits, a 0.1% ophthalmic solution of L-ascorbyl tocopheryl phosphate sodium and, as a control, physiological saline were instilled into the bilateral eyes of rabbits in volumes of 10 μl each at 2, 1 and 0.5 hour before peracentesis and using a 27-gauge needle about 200 μl of anterior chamber aqueous humor was collected from each eye (primary aqueous humor). Then, after an interval of 1.5 hours, the aqueous humor was collected again in the same manner (secondary aqueous humor). The protein content of each aqueous sample was determined by the method of Lowry and the increases in the amount of protein (protein content of secondary aqueous humor-protein content of primary aqueous humor) in the respective groups were compared to evaluate the antiinflammatory effect of each test substance.

[1] = tested on: back skin of Hartly guinea pigs; experiment: Inhibitory effect on ultraviolet-induced erythema; assay type: in vivo; parameters: key to Degree of erythema, After 1 hour, Right / Degree of erythema, After 1 hour, Left / Degree of erythema, After 2 hours, Right / Degree of erythema, After 2 hours, Left: 0: No erythema; 1: Slight erythema; 2: Erythema without a distinct margin; 3: Erythema with a distinct margin
Method: Method: The back hairs of Hartly guinea pigs were clipped with an electric clipper and shaved with an electric razor. Then, a cloth with two holes 11 mm in diameter and 4 cm apart was appliedto the back for positioning and a 1 (w/v) % aqueous solution of δ-EPC (adjusted to pH 6.0) and, as control, water were applied 3 times in 100 μl portions each at 1-hour intervals around the sites of said holes over an area 4 cm in diameter. One hour after the final application, said cloth with small holes was applied again and the exposed skin areas was irradiated with ultraviolet rays at 1700 luxes for 360 seconds. Then, after 1 and 2 hours, respectively, the back was grossly examined for erythema. […]
Erythema without a distinct margin
Erythema with a distinct margin

[2] = 1 (w/v) % aqueous solution pH 6.0, 3 x 100 μl, one animal per line, control 2, 2, 2, 2
[3] = 1 (w/v) % aqueous solution pH 6.0, 3 x 100 μl, one animal per line, control 2, 3, 2, 2

Compound	% Inhibition (rabbits eye) [%]	Increase in protein (rabbits eye)	Degree of erythema, After 1 hour, Left [1, 2]	Degree of erythema, After 2 hours, Left [1, 2]	Degree of erythema, After 1 hour, Right [1, 3]	Degree of erythema, After 2 hours, Right [1, 3]	antiinflammatory effect compared with the control group ([1]; UV-induced erythema, guinea pigs)
Cc1cc(OP(=O)(O)OC2=C(O)[C@@H]([C@@H](O)CO)OC2=O)c(C)c2c1OC(C)(CCCC(C)CCCC(C)CCCC(C)C)CC2 (mixture of isomers) [β-EPC, L-Ascorbyl DL-β-tocopheryl phosphate sodium]	37.3	16.0	–	–	–	–	–
Cc1c(OP(=O)(O)OC2=C(O)[C@@H]([C@@H](O)CO)OC2=O)cc2c(c1C)OC(C)(CCCC(C)CCCC(C)CCCC(C)C)CC2 (mixture of isomers) [γ-EPC, L-Ascorbyl DL-γ-tocopheryl phosphate sodium]	36.5	16.2	–	–	–	–	–
C[C@@H]1C[C@H]2[C@@H]3CCC4=CC(=O)C=C[C@]4(C)[C@@]3(F)[C@@H](O)C[C@]2(C)[C@@]1(O)C(=O)CO [DEX, Dexamethasone, reference compound]	18.4	20.8	–	–	–	–	–
Cc1cc(OP(=O)(O)OC2=C(O)[C@@H]([C@@H](O)CO)OC2=O)cc2c1O[C@](C)(CCC[C@H](C)CCC[C@H](C)CCCC(C)C)CC2 [δ-EPC, L-Ascorbyl D-δ-tocopheryl phosphate sodium]	40.0	15.3	0 and 1	0 and 1	1	1	significant antiinflammatory effect
